Results: patent US8084431B2, “Method for inhibiting activation of macrophages, inhibiting formation of osteoclasts, inhibiting function of osteoclasts, and/or activating osteoblasts” (China Medical University, priority 2008, dated 2011)
Where two headings read alike, the source gives them in different places. Marks after values point to notes of the source that are not given here.

How the values were obtained:
[1] = test system: macrophages RAW 264.7; details: mouse, 3 days
Method: After 3 days, the survival rate of the macrophages RAW 264.7 was measured with MTS (3-(4,5-di-methylthiazol-2-yl)-5-(3-carboxymethoxyphenyl)-2-(4-sulfophenyl)-2H-tetrazolium) (Promega, Madison, Wis., USA), and the result is shown in Table 10.
The mechanism of MTS is that a live cell has the activity of dehydrogenase, so MTS can be reduced to become a red purple soluble product, and the product has the highest absorbance at the wavelength of 490 nm. Therefore, the survival rate of cells can be determined according to the absorbance, and the survival rate of cells can be calculated with the following formula: Survival rate=the absorbance of the experimental group/the absorbance of the control group×100%

[2] = test system: myelocytes of rats; experiment: Formation of osteoclasts from rat myelocytes (RANKL + M-CSF, TRAP stain); assay type: cell-based, Wistar rats; details: for inhibition at 5 µM / inhibition at 25 µM / inhibition at 50 µM / inhibition at 100 µM: Rattus norvegicus, Osteoclast, 216 h, 9 days
Method: Myelocytes were first prepared. Male Wistar rats with the body weight of 250 g to 300 g were used to prepare myelocytes. Under the condition of anaesthesia, the femurs of the rats were taken, and myelocytes were washed out with a phosphate buffer solution. […] After incubation for 9 days, monocytes in the marrow differentiated into osteoclasts. The osteoclasts were stained with a TRAP (tartrate-resistant acid phosphatase) stain reagent (Sigma, Louis, Mo., USA), and the number of the osteoclasts was calculated. Besides the same RANKL and M-CSF as the control group, various concentrations (0, 5, 25, 50, and 100 μM) of kinsenoside or 10 nM of estradiol (Wako, Japan) were added into culture plates, respectively. Then, rat myelocytes were incubated for 9 days, and the situation that the myelocytes differentiated into osteoclasts was observed. The percentage of the inhibition effect of kinsenoside and estradiol on the formation of osteoclasts was calculated with the following formula, and the result is shown in Table 9. Inhibition percentage (%)=(the number of osteoclasts of the control group−the number of osteoclasts of the experimental group)/the number of osteoclasts of the control group×100% In addition to the aforesaid RANKL, kinsenoside, and/or estradiol, the inhibitor of estradiol, Fulvestrant (Sigma, Louis, Mo., USA) (1 nM), was also added into culture plates. Then, rat myelocytes were incubated for 9 days, and the situation that the myelocytes differentiated into osteoclasts was observed. The percentage of the inhibition effect of kinsenoside on the formation of osteoclasts was calculated, and the result is shown in Table 9.

[3] = test system: BALB/c mice with collagen-induced rheumatoid arthritis; experiment: Collagen-induced rheumatoid arthritis of BALB/c mice; assay type: in vivo; details: for CD4/278 (ratio of Th2 cells) / CD19/45 (ratio of B cells) / the number of lymphocytes: inguinal lymph nodes; for IgE / IgG1 / TNF-α: serum
Method: BALB/c mice were purchased from the National Laboratory Animal Center, Taiwan. 200 μg of type-IT collagen (Sigma) was subcutaneously injected into the tails of the BALB/c mice to induce the rheumatoid arthritis, wherein type-II collagen was emulsified with a Freund's complete adjuvant (Sigma) previously. At the […], 200 μg of type-II collagen was subcutaneously injected into the tails of the BALB/c mice again, and type-II collagen was emulsified with a Freund's incomplete adjuvant (Sigma) previously. From the day of the second injection, the BALB/c mice were administrated orally with kinsenoside (100 or 300 mg/kg) daily for 21 days. After 21 days, the BALB/c mice were sacrificed, and the blood, inguinal lymph nodes, and soles comprising joints of the BALB/c mice were collected for assay.
The concentrations of TNF-α and antibodies IgE and IgG1 in the serum were determined with ELISA method. Antibodies IgE and IgG1 reagents were purchased form Bethyl, Montgomery, Tex., USA.
Lymph nodes were taken from the both sides of the groins of the BALB/c mice, and were sieved to produce a single suspended cell line. The number of lymphocytes was determined with a flow cytometer. In addition, B cells and Th2 cells were stained with antibodies CD19/45 and CD4/278 (eBioscience) to obtain the ratio of B cells and Th2 cells.
The mRNAs were extracted from the right soles and joints of the mice, and the expression of the mRNAs of TNF-α was analyzed with RT-PCR (Reverse Transcription-Polymerase Chain Reaction).

[4] = test system: macrophages RAW 264.7; experiment: Formation of osteoclasts from macrophages RAW 264.7 (RANKL, TRAP stain); assay type: cell-based; details: Mus musculus, RAW264.7, 120 h, RANKL 50 ng/ml, 5 days, read-out: inhibition percentage
Method: If macrophages RAW 264.7 are incubated in culture plates containing 50 ng/ml of differentiation inducer, RANKL, they usually differentiate into osteoclasts after 5 days. In Experiment H, various concentrations (0, 10, and 50 μM) of kinsenoside or 10 nM of estradiol were added into culture plates containing macrophages RAW 264.7, respectively, and the macrophages RAW 264.7 were incubated for 5 days. […] The number of osteoclasts was counted, and the inhibition percentage of the formation of osteoclasts was calculated with the following formula, and the result is shown in Table 11. Inhibition percentage=(the number of osteoclasts in the control group−the number of osteoclasts in the experimental group)/the number of osteoclasts in the control group×100%

[5] = test system: nitric oxide synthase (iNOs), p65, and p50 (NF-κB); experiment: Western blot of iNOs, p65 and p50 in LPS-induced macrophages RAW 264.7; assay type: cell-based; details: kinsenoside 10, 50, 100 μM
Method: 24 hours later, the supernatant was collected, and the content of nitric oxide was determined with a Griess reagent (Sigma). After macrophages RAW 264.7 were scratched off the culture plates, proteins were extracted, and then the expression of nitric oxide synthase (iNOs), p65, and p50 (nuclear factor kappa B or NF-κB, transcription factor) was analyzed with the western blot method.

[6] = test system: macrophages in the peritoneal cavity of ICR mice; experiment: NO release of LPS-induced peritoneal macrophages (Griess reagent); assay type: cell-based; details: LPS 1 μg/ml, 24 hours
Method: By means of peritoneal cavity injection, ICR mice (BioLASCO, Co., Ltd., Taiwan) were administrated with 5 wt % of thioglycollate (Becton Dickinson, Franklin Lakes, N.J.). […] Then, kinsenoside (10, 25, 50 μM) was added into the culture plates, and the macrophages were incubated for 30 minutes. Lipopolysaccharides (1 μg/ml, Sigma) were added into the plates to induce the inflammatory reaction of macrophages. 24 hours later, the supernatant was collected, and the content of nitric oxide was determined with a Griess reagent (Sigma).

[7] = with Fulvestrant 1 nM, read-out: inhibition percentage Experimental Group II
[8] = without Fulvestrant, read-out: inhibition percentage Experimental Group I
[9] = kinsenoside 100 mg/kg oral daily for 21 days
[10] = kinsenoside 300 mg/kg oral daily for 21 days

## O=C1C[C@@H](OC2OC(CO)C(O)C(O)C2O)CO1 (stereo partly drawn) [kinsenoside, 3-(R)-3-β-D-glucopyranosyloxy-butanolide]
[1]; 10 μM
  survival rate Experimental Group III: 117.5 ± 8.0%
  survival rate Experimental Group IV: 100.3 ± 4.0%
[1]; 25 μM
  survival rate Experimental Group III: 139.9 ± 4.9%
  survival rate Experimental Group IV: 105.0 ± 2.4%
[1]; 50 μM
  survival rate Experimental Group III: 136.9 ± 4.8%
  survival rate Experimental Group IV: 101.0 ± 0.3%
[2]; Fulvestrant 1 nM, summary of Table 9
  effect of Fulvestrant on the inhibition of osteoclast formation: no inhibition effect
[2]; [7]
  inhibition at 5 µM: 12 ± 7.5%
  inhibition at 25 µM: 16.3 ± 6.7%
  inhibition at 50 µM: 65.7 ± 3.8%
  inhibition at 100 µM: 76 ± 3.6%
[2]; [8]
  inhibition at 5 µM: 15.3 ± 7.2%
  inhibition at 25 µM: 25 ± 2%
  inhibition at 50 µM: 50.3 ± 4.2%
  inhibition at 100 µM: 78.1 ± 2.8%
[3]; [9]
  CD4/278 (ratio of Th2 cells): 8.0 ± 0.6 %
  CD19/45 (ratio of B cells): 19.3 ± 2.1 %
  the number of lymphocytes: 3.3 ± 0.6* 10^5/ml
  IgE: 0.15 ± 0.03 absorbance
  IgG1: 2.44 ± 0.05 absorbance
  TNF-α: 825.9 ± 155.4* 10^−12 g/ml
[3]; [10]
  CD4/278 (ratio of Th2 cells): 7.6 ± 0.6 %
  CD19/45 (ratio of B cells): 18.6 ± 3.6 %
  the number of lymphocytes: 2.8 ± 1.0*** 10^5/ml
  IgE: 0.13 ± 0.04 absorbance
  IgG1: 2.41 ± 0.10 absorbance
  TNF-α: 790.0 ± 194.1* 10^−12 g/ml
[3]; right soles and joints, RT-PCR, kinsenoside 100 or 300 mg/kg oral, FIG. 5A and 5B
  expression of mRNAs of TNF-α: alleviates the expression of mRNAs of TNF-α
[4]; 10 μM
  inhibition at 10 µM: 19 ± 9%
[4]; 25 μM
  inhibition at 25 µM: 59 ± 8%
[4]; 50 μM
  inhibition at 50 µM: 71 ± 3%
[5]; FIG. 2A and 2B
  expression of nitric oxide synthase: reduce the expression of nitric oxide synthase
[5]; FIG. 3A to 3C
  p50 and p65 entering into the nuclei: this effect can be inhibited by kinsenoside
[6]; kinsenoside 10 μM
  NO concentration: 26.7 ± 3.2 µM
[6]; kinsenoside 25 μM
  NO concentration: 20.2 ± 2.1 µM
[6]; kinsenoside 50 μM
  NO concentration: 16.2 ± 1.0 µM
